Data: patent US12686690B2, “Macrocyclic urea orexin receptor agonists” (Merck Sharp & Dohme LLC, priority 2020, dated 2026)

Molecular target: T1, hOX2R (Homo sapiens, UniProt O43614)
T1 construct: expressed in transfected cells; host or cells: CHO cells (G418 selection)
T1 sequence (O43614 1-444): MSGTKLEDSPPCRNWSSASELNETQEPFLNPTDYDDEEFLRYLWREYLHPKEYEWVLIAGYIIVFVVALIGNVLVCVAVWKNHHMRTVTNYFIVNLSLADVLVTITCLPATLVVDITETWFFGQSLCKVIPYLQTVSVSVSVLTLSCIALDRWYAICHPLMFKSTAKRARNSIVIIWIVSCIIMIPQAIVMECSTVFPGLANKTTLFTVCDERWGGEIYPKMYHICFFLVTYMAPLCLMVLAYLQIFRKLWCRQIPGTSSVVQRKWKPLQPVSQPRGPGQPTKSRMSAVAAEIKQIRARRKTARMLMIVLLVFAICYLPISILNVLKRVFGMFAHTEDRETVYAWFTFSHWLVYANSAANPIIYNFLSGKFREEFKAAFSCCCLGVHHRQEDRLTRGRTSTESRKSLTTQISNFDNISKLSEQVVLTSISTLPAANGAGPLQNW
Assay: hOX2R IPone assay (orexin receptor agonism)
Type: cell-based
Conditions: IPone readout; for hOX2R_Ipone max %act: maximal activation; for EC50: orexin receptor agonist, read-out: hOX2R_IPone EC50

| hOX2R_Ipone max %act | EC50 | SMILES |
| --- | --- | --- |
| 101.2% | 6.8 nM | CCN1C(=O)N[C@@H](CCC(F)(F)F)CCCCCOc2nc(cn3ccnc23)-c2cc(ncn2)[C@H]1C [Example 112A, (12R,16R)-13-ethyl-12-methyl-16-(3,3,3-trifluoropropyl)-12,13,16,17,18,19,20,21-octahydro-6,23-(azeno)-11,7-(metheno)imidazo[2,1-c][1,4,8,10,13,15]oxapentaazacyclohenicosin-14(15H)-one] |
| 99.3% | 1 nM | CCN1C(=O)N[C@@H](CCC(F)(F)F)CCCCCOc2nc(cn3ccnc23)-c2cc(ncc2C)[C@H]1C [Example 79, (12R,16R)-13-ethyl-8,12-dimethyl-16-(3,3,3-trifluoro-propyl)-12,13,16,17, 18,19,20,21-octa-hydro-6,23-(azeno)-11,7-(metheno) imidazo[2,1-c][1,4,10, 13,15]oxatetraazacyclo-henicosin-14(15H)-one] |
| 101.1% | 16.4 nM | CCN1C(=O)N[C@@H](CCC(F)(F)F)CCCCOc2nc(cn3ncnc23)-c2cc(ncc2OC)C1C(F)(F)F (single isomer, unassigned) [Example 34B] |
| 98.4% | 17.7 nM | CCN1Cc2cc(ccn2)-c2cn3ccnc3c(n2)OCCCCC[C@H](CCC(F)(F)F)NC1=O [Example 120, (16R)-13-ethyl-16-(3,3,3-trifluoropropyl)-12,13,16,17,18,19,20,21-octahydro-6,23-(azeno)-11,7-(metheno)imidazo[2,1-c][1,4,10,13,15]oxatetraazacyclohenicosin-14(15H)-one] |
| 102.4% | 13.5 nM | CCN1C(=O)NC(CC2CCCC2)CCCCCOc2nc(cn3ccnc23)-c2cc(ncc2OC)[C@H]1C (single isomer, unassigned) [Example 65A] |
| 101% | 2.1 nM | CCN1C(=O)NC(CC2CCOC2)CCCCCOc2nc(cn3ccnc23)-c2cc(ncc2OC)[C@H]1C (single isomer, unassigned) [Example 67B] |
| 101.7% | 0.61 nM | CCN1C(=O)NC(COCC(F)F)CCCCCOc2nc(cn3ccnc23)-c2cc(ncc2OC)[C@H]1C (mixture of isomers) [Example 190, (3R,E)-7-((2,2-difluoroethoxy)methyl)-4-ethyl-25-methoxy-3-methyl-13-oxa-4,6-diaza-1(6,8)-imidazo[1,2-a]pyrazina-2(4,2)-pyridinacyclotridecaphan-5-one] |
| 102.2% | 10 nM | CCN1C(=O)N[C@@H](CCC(F)(F)F)CCCCCOc2cc(nc3ccnn23)-c2cc(ncc2OC)[C@H]1C [Example 100, (11R,15R)-12-ethyl-7-methoxy-11-methyl-15-(3,3,3-trifluoropropyl)-11,12,15,16,17,18,19, 20-octahydro-5,22: 10,6-di(metheno)pyrazolo [1,5-c][1,3,5,10,13,15] oxapentaazacycloheni-cosin-13(14H)-one] |
| 101.9% | 1.5 nM | CCN1C(=O)N[C@@H](CCC(F)(F)F)CCCCCOc2nc(cn3ccnc23)-c2nc(ncc2OC)[C@H]1C [Example 117B, (12R,16R)-13-ethyl-8-methoxy-12-methyl-16-(3,3,3-trifluoropropyl)-12,13,16,17,18,19,20,21-octahydro-6,23:11,7-di(azeno)imidazo[2,1-c][1,4,10,13,15]oxatetraazacyclohenicosin-14(15H)-one] |
| 97.69% | 248 nM | CCN1C(=O)N[C@@H](CC(F)(F)F)CCCCCOc2nc(nn3ccnc23)-c2ccnc(c2)[C@H]1C [Example 101, (12R,16R)-13-ethyl-12-methyl-16-(2,2,2-trifluoroethyl)-12,13,16,17,18,19,20, 21-octahydro-6,23-(azeno)-11,7-(metheno)imidazo[2,1-c][1,4,5,10,13,15] oxapentaazacycloheni-cosin-14(15H)-one] |
| 99.27% | 416 nM | CCN1C(=O)NC(C)CCCCCOc2nc(cn3ccnc23)-c2cc(ncc2OC)[C@H]1C (single isomer, unassigned) [Example 9A] |
| 103.8% | 3.08 nM | CCN1C(=O)N[C@@H](CCC(F)(F)F)COCCCOc2nc(cn3ncnc23)-c2cc(ncc2OC)[C@H]1C [Example 174, (3R,7S,E)-4-ethyl-25-methoxy-3-methyl-7-(3,3,3-trifluoropropyl)-9,13-dioxa-4,6-diaza-1(6,8)-[1,2,4]triazolo[1,5-a]pyrazina-2(4,2)-pyridinacyclotridecaphan-5-one] |
| 99.08% | 183 nM | CCN1C(=O)N[C@@H](CCC(F)(F)F)CCCCCOc2nc(cn3ccnc23)-c2cc(cc(C)n2)[C@@H]1C [Example 118A, (12S,16R)-13-ethyl-9,12-dimethyl-16-(3,3,3-trifluoropropyl)-12,13,16,17,18,19,20,21-octahydro-6,23-(azeno)-11,7-(metheno)imidazo[2,1-c][1,4,8,13,15]oxatetraazacyclohenicosin-14(15H)-one] |
| 101.8% | 9.3 nM | CCN1C(=O)N[C@@H](CCC(F)(F)F)CCCCCOc2nc(cn3ccnc23)-c2cc(ncn2)C1C (stereo partly drawn) [Example 112B, (16R)-13-ethyl-12-methyl-16-(3,3,3-trifluoropropyl)-12,13,16,17,18,19,20,21-octahydro-6,23-(azeno)-11,7-(metheno)imidazo[2,1-c][1,4,8,10,13,15]oxapentaazacyclohenicosin-14(15H)-one] |
| 108.5% | 12.1 nM | CCN1C(=O)NC(C)/C=C/CC(F)(F)COc2cn3ccnc3c(n2)-c2cc(ncc2OC)[C@H]1C (stereo partly drawn) [Example 220, (1^7E,3R,8E)-4-ethyl-11,11-difluoro-25-methoxy-3,7-dimethyl-13-oxa-4,6-diaza-1(6,8)-imidazo[1,2-a]pyrazina-2(4,2)-pyridinacyclotridecaphan-8-en-5-one] |
| 72.77% | 541 nM | CCN1C(=O)N[C@@H](CCC(F)(F)F)CCCCCOc2nc(cn3ccnc23)-c2cnnc(c2)[C@H]1C [Example 159, (3R,7R,E)-4-ethyl-3-methyl-7-(3,3,3-trifluoropropyl)-13-oxa-4,6-diaza-1(6,8)-imidazo[1,2-a]pyrazina-2(5,3)-pyridazinacyclotridecaphan-5-one] |
| 94.5% | 2390 nM | CCN1C(=O)N[C@@H](CC(F)(F)F)CCCCOc2nc(cn3ncnc23)-c2cc(ncc2OC)C1C(F)(F)F (stereo partly drawn) [Example 38, (16R)-13-ethyl-8-methoxy-16-(2,2,2-trifluoroethyl)-12-(trifluoromethyl)-12,13,15,16,17,18,19,20-octahydro-14H-6,22-(azeno)-11,7-(metheno) [1,2,4]triazolo[5,1-c][1,4,10,13,15]oxatetra-azacycloicosin-14-one] |
| 102.1% | 4.75 nM | CCN1C(=O)NC(C(O)CC(F)(F)F)CCCCCOc2nc(cn3ncnc23)-c2cc(ncc2OC)C1C (single isomer, unassigned) [Example 133] |
| 101.7% | 2.66 nM | CCN1C(=O)N[C@@H](CCC(F)(F)F)CCOCCOc2nc(cn3ccnc23)-c2cc(ccn2)[C@H]1C [Example 161, (3R,7S,E)-4-ethyl-3-methyl-7-(3,3,3-trifluoropropyl)-10,13-dioxa-4,6-diaza-1(6,8)-imidazo[1,2-a]pyrazina-2(2,4)-pyridinacyclotridecaphan-5-one] |
| 100% | 11.4 nM | CCN1C(=O)NC(CC23CC(C2)C3)CCCCCOc2nc(nn3ccnc23)-c2cc(ncc2OC)[C@H]1C (stereo partly drawn) [Example 203, (3R,E)-7-(bicyclo[1.1.1]pentan-1-ylmethyl)-4-ethyl-25-methoxy-3-methyl-13-oxa-4,6-diaza-1(2,4)-imidazo[2,1-f][1,2,4]triazina-2(4,2)-pyridinacyclotridecaphan-5-one] |
| 102.8% | 5.24 nM | CCN1C(=O)N[C@@H](CCC(F)(F)F)CCCCCOc2cc(cc3ccnn23)-n2nc(cc2C2CC2)C1C (mixture of isomers) [Example 210, (16E,22E,7R)-25-cyclopropyl-4-ethyl-3-methyl-7-(3,3,3-trifluoropropyl)-21H-13-oxa-4,6-diaza-1(5,7)-pyrazolo[1,5-a]pyridina-2(1,3)-pyrazolacyclotridecaphan-5-one] |
| 98.8% | 3.6 nM | CCN1C(=O)NC(CCC(F)(F)F)C(C)CCCOc2nc(cn3ccnc23)-c2cccc(c2)[C@H]1C (single isomer, unassigned) [Example 42D] |

| SMILES | hOX2R_Ipone max %act | EC50 |
| --- | --- | --- |
| CCN1C(=O)NCCCOCCOc2nc(cn3ccnc23)-c2cccc(c2)[C@H]1C [Example 14, (12R)-13-ethyl-12-methyl-12,13,15,16,17,18, 20,21-octahydro-14H-6,23-(azeno)-11,7-(metheno)imidazo [2,1-f][1,4,7,16, 18]dioxatriaza-cyclohenicosin-14-one] | 101% | 9.7 nM |
| CCN1C(=O)NCCOCCCOc2nc(cn3ccnc23)-c2cccc(c2)[C@H]1C [Example 17, (12R)-13-ethyl-12-methyl-12,13, 16,17,20,21-hexahydro-19H-6,23-(azeno)-11,7-(metheno) imidazo[1,2-o][1, 18,4,6,15]dioxa-triazacyclohenicosin-14(15H)-one] | 99.6% | 19.4 nM |
